# ChEMBL document CHEMBL3301361, “Experimental in vitro DMPK and physicochemical data on a set of publicly disclosed compounds”
# Non-standard residues stand in square brackets, D forms with d. Residues, ends and D or L forms follow the SMILES beside them. Phe(2-Me) = Cc1ccccc1C[C@H](N)C(=O)O
# Experiment: in vitro
# Settings: human, plasma
row,Structure (SMILES),fraction unbound at 5 h
1,O=C1COc2ccc(CNC3CCN(CCN4C(=O)COc5ccc([N+](=O)[O-])cc54)CC3)nc2N1,0.249
2,Cc1ccnc2c1NC(=O)c1cccnc1N2C1CC1 [NEVIRAPINE],0.557
3,Cc1ccc(Cl)cc1NC(=O)CCS(=O)(=O)c1ccc(Br)s1,0.0111

# Same assay, conditions: human, plasma, PPB
row,Structure (SMILES),fraction unbound at 5 h
1,COc1cc(OC)c(S(=O)(=O)NCc2ccccc2N2CCC(COC(=O)CCC(=O)O)CC2)cc1NC(=O)CCC(=O)O,0.151
2,Cc1nc(C(F)(F)F)ccc1C(=O)Nc1ccc(Cl)c(-c2ccccn2)c1,0.0099
3,Cc1ncc(NC(=O)c2cc(NC(=O)c3cc(F)cc(Cl)c3)ccc2Cl)s1,0.004
4,COc1ccc2ncc(=O)n(CCN3CC[C@@H](NCc4cc5c(cn4)OCCO5)[C@H](O)C3)c2c1,0.179
5,NC(=O)c1cccc2c3c([nH]c12)CCCC3,0.28
6,CN[C@@H](C)C(=O)N[C@H](C(=O)N[C@H]1CCN(CCCc2ccccc2)C1)C1CCCCC1,0.36
7,COc1ccc(S(=O)(=O)N2CCC[C@H](n3cc(C)c(=O)[nH]c3=O)C2)cc1Oc1cccc(Cl)c1,0.0251
8,COc1cc(OC)c(S(=O)(=O)N2c3ccccc3CCC2C)cc1NC(=O)Cc1ccnc(F)c1 (configuration not stated),0.0544
9,COc1cnc(-c2ccccn2)nc1N1CCOCC1,0.339
10,COc1cc(OC)c(S(=O)(=O)N2c3ccccc3Oc3ccccc32)cc1NC(=O)/C=C/C(=O)O,0.024
11,CN[C@@H](C)C(=O)N[C@H](C(=O)N[C@H]1CCCN(CCc2ccc(Br)cc2)C1)C(C)(C)C,0.0229
12,CCCc1cc(C2=N[C@@H](C(=O)NO)CO2)cc(OC)c1OC,0.0568
13,CN[C@@H](C)C(=O)N[C@H](C(=O)N[C@H]1CCCCN(CCc2ccccc2)C1)C1CCCCC1,0.262
14,Cc1cccc(Oc2cc(CN3CCC[C@H](n4cc(C)c(=O)[nH]c4=O)C3)ccc2C(=O)O)c1,0.0383
15,COc1ccc(C[C@H](N)C(=O)N[C@@H](Cc2ccccc2C)C(N)=O)cc1 (H-Tyr(Me)-[Phe(2-Me)]-NH2),0.36
16,Cc1cccc(Nc2nc(NCc3ccco3)c3ccccc3n2)c1,0.0007
17,COc1cccc(C(=O)N2C(C(=O)O)CSC2c2ccccc2Cl)c1 (configuration not stated),0.0139
18,O=C(Nc1ccc(Cl)c(C(=O)Nc2cncs2)c1)c1cccc(Cl)c1,0.002
19,CCOc1cc2ncc(C(N)=O)c(Nc3cccc(Cl)c3Cl)c2cc1N1CCN(C(C)C)CC1,0.0146
20,CC(=O)S[C@@H]1CC2=CC(=O)CC[C@]2(C)C2CC[C@@]3(C)C(CC[C@@]34CCC(=O)O4)C21 (some centres not stated),0.24
21,CCOc1cc2ncc(C(N)=O)c(Nc3ccc(F)cc3F)c2cc1N1CCCN(C)CC1,0.304
22,CC(=O)Nc1ccc2c(c1)N(c1cc(NC3CC3)n3ncc(C#N)c3n1)CCO2,0.0752
23,CCOc1cc2ncc(C(N)=O)c(Nc3cccc(Cl)c3Cl)c2cc1N1CCN(CCO)CC1,0.0477

row,Structure (SMILES),fraction unbound at 5 h
1,COc1ccc(N(C(=O)c2ccccc2)C(C(=O)NC2CCCC2)c2ccccc2F)c(OC)c1 (configuration not stated),0.0033
2,N#Cc1c(-c2ccc(-c3cccnc3)cc2)nc2ccncc2c1O,0.007
3,CN(C)CCNc1cc(-c2ccncc2)nc2ccccc12,0.142
4,CCOc1cc2ncc(C(N)=O)c(Nc3cccc(Cl)c3Cl)c2cc1N1CCN(CC)CC1,0.0183
5,COc1cc(OC)c(S(=O)(=O)N2c3ccccc3CCC2C)cc1NC(=O)CCC(=O)O (configuration not stated),0.186
6,CC(=O)Nc1ccc2c(c1)c(-c1cc(NC3CC3)n3ncc(C#N)c3n1)cn2CCO,0.0179
7,CN(C)CCNC(=O)c1ccc(Nc2ncc3cc(-c4ccncc4)ccc3n2)cc1,0.0111
8,CCOc1cc2ncc(C(N)=O)c(Nc3ccc(F)cc3F)c2cc1N1CCCN(C2CC2)CC1,0.0219
9,O=C(Nc1ccc(Cl)cc1)Nc1nnc(-c2ccncc2)s1,0.0017
10,CCOc1cc2ncc(C(N)=O)c(Nc3cccc(Cl)c3Cl)c2cc1N1CCCN(C)CC1,0.0163
11,"O[C@H](c1cc(C(F)(F)F)nc2c(C(F)(F)F)cccc12)[C@@H]1CCCCN1 [(R,S)-MEFLOQUINE]",0.0214
12,c1cc(-c2ccc3nc(Nc4ccc(OCCN5CCCC5)cc4)ncc3c2)ccn1,0.028
13,[H]/N=C(/N)c1ccc(NCc2nc3cc(C(=O)N(CCC(=O)O)c4ccccn4)ccc3n2C)cc1 [DABIGATRAN],0.529
14,CC(C)Oc1cc2ncc(C(N)=O)c(Nc3ccc(F)cc3F)c2cc1N1CCN(C)CC1,0.0171
15,CCOC(=O)[C@H](CCc1ccccc1)N[C@H]1CCc2ccccc2N(CC(=O)O)C1=O [BENAZEPRIL],0.0409
16,Cc1nc(N2CCOCC2)c2cc(-c3ccccc3)sc2n1,0.0042
17,CC(C)c1ccc(/C=N/NC(=O)c2ccc(O)cc2)cc1,0.0568
18,COc1ccc2ncc(=O)n(CCN3CC[C@H](NCc4cc5c(cn4)OCCO5)[C@H](O)C3)c2c1,0.194
19,C[C@H](Nc1ncc(Cl)c(Nc2cc(C3CC3)[nH]n2)n1)c1ncc(F)cn1,0.0568
20,COc1cc2ncc(C(N)=O)c(Nc3cccc(Cl)c3Cl)c2cc1NCCN1CCCCC1,0.0209
21,COc1cc(OC)c(S(=O)(=O)NCc2ccccc2N2CCC(CO)CC2)cc1NC(=O)CCC(=O)O,0.403
22,CCOc1cc2ncc(C(N)=O)c(Nc3ccc(F)cc3F)c2cc1N1CCOCC1,0.0836
23,COc1cnc(-c2ccccn2)nc1N(C)C,0.163

row,Structure (SMILES),fraction unbound at 5 h
1,CC(C)Oc1cc2ncc(C(N)=O)c(Nc3ccc(Cl)c(Cl)c3)c2cc1N1CCN(C)CC1,0.0099
2,CC(NCCC(c1ccccc1)c1ccccc1)c1ccccc1 (configuration not stated) [FENDILINE],0.0116
3,Cc1csc(N)c1C(N)=O,0.324
4,CNC(=O)c1cc(Oc2ccc3c(c2)nc(Nc2ccc(C(F)(F)F)cc2)n3C)ccn1,0.005
5,O=C(/C=C/c1ccccc1Cl)Nc1ccc2c(c1)C(=O)NC2=O,0.0948
6,CCc1[nH]c2nc(Sc3cnc4ccc[n+]([O-])c4c3)nc(N3CC[C@@H](N)C3)c2c1Cl,0.204
7,CC(=O)Nc1ccc2ccn(-c3cc(NCCN4CCOCC4)n4ncc(C#N)c4n3)c2c1,0.112
8,C[C@H]1CN(Cc2cc(Cl)ccc2OCC(=O)O)CCN1S(=O)(=O)c1ccccc1,0.0274
9,COc1ccc2c(O)cc(=O)n(Cc3ccc(-c4ccccc4-c4nn[nH]n4)cc3)c2c1,0.0011
10,COc1cc(OC)c(S(=O)(=O)N2c3ccccc3Oc3ccccc32)cc1NC(=O)Cc1ccnc(F)c1,0.0099
11,COCCC(Oc1ncnc2c1cnn2-c1ccccc1OC)C(=O)Nc1ccc(C)cn1 (configuration not stated),0.139
12,CN1CCN(c2cc3c(Nc4cccc(Cl)c4Cl)c(C(N)=O)cnc3cc2F)CC1,0.0437
13,O=C(Nc1ccc(CCO)cc1)c1cc2cc(Cl)ccc2[nH]1,0.0139
14,COc1cc(OC)c(S(=O)(=O)N2c3ccccc3CCC2C)cc1NC(=O)CSCC(=O)O (configuration not stated),0.126
15,C=CC1(C)CC(=O)C2(O)C(C)(O1)C(OC(C)=O)C(O)C1C(C)(C)CCC(O)C12C (configuration not stated),0.16
16,COc1cc(OC)c(S(=O)(=O)NCc2ccccc2N2CCC(C(=O)O)CC2)cc1NC(=O)CCC(=O)O,0.194
17,CC(C)Oc1cc2ncc(C(N)=O)c(Nc3cccc(Cl)c3F)c2cc1N1CCN(C)CC1,0.0488
18,CN(C)c1cc(NC(=O)Nc2cccc(Cl)c2)c2ccccc2n1,0.0014
19,COc1cc(OC)c(S(=O)(=O)NCc2ccccc2N2CCC(CO)CC2)cc1NC(C)=O,0.126
20,CC1=C(/C=C/C(C)=C/C=C/C(C)=C/C(=O)Nc2ccc(O)cc2)C(C)(C)CCC1 [FENRETINIDE],0.0019
21,CCOc1cc2ncc(C(N)=O)c(Nc3cccc(Cl)c3Cl)c2cc1N1CCN(C(C)=O)CC1,0.0968
22,O=c1cc(N2CCOCC2)nc2n(Cc3cccc(F)c3)ccn12,0.22
23,CCCNC(=O)c1cc2c(-n3ccc(C(F)(F)F)n3)c(-c3cncc(C(=O)O)c3)cnc2[nH]1,0.0768

row,Structure (SMILES),fraction unbound at 5 h
1,O=C(O)[C@@H](c1ccc(OCc2ccc3ccccc3n2)cc1)C1CCCC1 [VELIFLAPON],0.0015
2,C[C@H](CO)Nc1nc(SCc2cccc(F)c2F)nc2[nH]ncc12,0.035
3,COc1cc(OC)c(S(=O)(=O)N2c3ccccc3CCC2C)cc1NC(=O)CCc1nn[nH]n1 (configuration not stated),0.0647
4,CC(=O)Nc1ccc2c(c1)N(c1cc(NC3CC3)n3ncc(C#N)c3n1)CCC2,0.0262
5,Cc1csc(NC(=O)COc2ncnc3c2cnn3-c2ccccc2Cl)n1,0.0082
6,COc1cc2ncc(C(N)=O)c(Nc3ccc(Cl)cc3Cl)c2cc1N1CCN(C)CC1,0.0321
7,COc1ccc(-c2nc3ccc(C4=NNC(=O)CC4C)cc3[nH]2)cc1 (configuration not stated) [PIMOBENDAN],0.11
8,CN[C@@H](C)C(=O)N[C@H](C(=O)N[C@H]1CCCN([C@@H]2CCCc3ccccc32)C1)C1CCCCC1,0.0676
9,O=C(O)c1ccc2nc(C(F)(F)F)[nH]c2c1,0.101
10,CCNC(=O)c1cc2c(-n3nc(C(F)(F)F)cc3C)c(-c3cncc(C(=O)O)c3)cnc2[nH]1,0.454
11,Cc1cc(Nc2nc(N[C@@H](C)c3ccc(F)cc3)ncc2Cl)n[nH]1,0.009
12,O=C(O)COc1ccccc1N1CCC(CN2CCC(Oc3ccc(Cl)c(Cl)c3)CC2)CC1,0.0114
13,COc1cc2ncc(C(N)=O)c(Nc3cccc(Cl)c3Cl)c2cc1N1CCN(C)CC1,0.0447
14,CN1CCN(C(=O)c2cc(Cc3n[nH]c(=O)c4ccccc34)ccc2F)CC1,0.289
15,CN1CCN(C2=Nc3ccccc3Nc3ccc(OS(=O)(=O)C(F)(F)F)cc32)CC1,0.0358
16,NS(=O)(=O)c1ccc(N2N=C(c3ccc(Br)cc3)CC2c2ccc(F)cc2)cc1 (configuration not stated),0.105
17,CCOc1cc(CC(=O)N[C@@H](CC(C)C)c2ccccc2N2CCCCC2)ccc1C(=O)O [REPAGLINIDE],0.009
18,O=C(O)/C=C/c1cccc(-c2cnc3[nH]ccc3c2)c1,0.0219
19,COc1ccc2c(c1)N(CCN1CCC(NCc3cc4c(cn3)OCCO4)CC1)C(=O)CS2,0.0948
20,O=C(CCS(=O)(=O)c1ccc(Br)cc1)NCCc1ccccc1,0.04
